Assay results as given in US20260193647A1, “MIRNA-BASED CANCER THERAPY WITH A TUMOR-NAVIGATING PEPTIDE” (The Board of Trustees of the Universities of Illinois, priority 2022, published 2026).

Key:
miR-20a [1] = assay: miR-20a expression levels by stem loop qPCR in treated cells; format: cell-based, human; conditions: 10 nM, 24 hr
Excerpt: (§1) Micro RNA enriched fraction was extracted using the miRNeasy Mini Kit (Qiagen, Catalog #217004) following the manufacturer's instructions. Stem loop real-time qPCR was used to analyze miRNA expression. We designed miR-20a stem loop RT primers and amplification primers according to a previously described method 79. cDNA was synthesized from extracted RNA using unique stem loop RT primers. The sequence of the stem loop primer for miR-20a was 5′-[…]-3′ (SEQ ID NO:7). Reverse transcriptase reactions contained the following reagents: 10 ng of RNA sample, 60 nM stem-loop RT primer, 1×RT buffer, 0.25 mM dNTP, and 4 U/μl reverse transcriptase. Reactions were performed by incubation at 16° C. for 30 min, 42° C. for 30 min and 85° C. for 5 min. Real-time PCR (7300 Real time PCR Systems, Applied Biosystems, CA) was performed using the specific forward primer for miR-20a (5′-[…]-3′ (SEQ ID NO:8)) and a universal reverse primer (5′-GTGCA GGGTC CGAGGT-3′ (SEQ ID NO:9)). The 20-μl PCR mixture included 1×SYBR Premix (Invitrogen), 2 μl of RT products and each forward and reverse primer at 10 nM. Reactions were performed by incubation in a 96-well plate at 95° C. for 30 sec, followed by 35 cycles of 95° C. for 30 sec and 60° C. for 30 sec. U6 was used as an internal control to normalize the level of target miRNAs. The results were verified by performing PCR using M13 modified forward and reverse primers specific to stem loop sequence. The PCR products were visualized in 2% agarose gels and DNA-sequence was confirmed. Human tumor and serum samples were obtained from patients who had signed informed consent and the institutional review board approval was obtained in Pediatric Brain Tumor Consortium (PBTC-041) participating sites.

CHLA-200 cells = format: cell-based, human; conditions: 24 hr; read-out: IC50 (cell viability)
Procedure: (§2) Cell viability was evaluated by a CCK-8 assay (Dojindo, Japan). Cells were seeded at a density of 4,000 cells per well in 100 μl of growth medium in 96-well plates and grown overnight. Then, the cells were exposed to antisense miR-20a alone, p28 alone or negative control or AmiR20-p28 over a range of concentrations and incubated for 24 hr. According to the manufacturer's instructions, 10 μl of CCK-8 solution was added to each well, followed by incubation for 1 hr at 37° C. The absorbance at 450 nm was determined by a multiplate reader.
(§3) Cell viability (%)=Abs(sample)−Abs(blank)/Abs(no treatment)−Abs(blank)×100

[2] = system: MDA-MB231, SKOV3, Mia-Paca2, Colon 205 and DU145 cells; assay: CCK-8 cell viability assay, other solid tumor cells; format: cell-based, human; conditions: 10 nM
Procedure: as §2

SJ-GBM2 spheroids = assay: SJ-GBM2 tumor spheroids: uptake and structure; format: cell-based, human
Procedure: SJ-GBM2 cells, CHLA-200 cells and astrocytes (2×10^4 cells/well) were cultured on glass slides placed in 24-well plates. After overnight culture, the cells were washed with PBS and incubated with 20 μM Alexa Fluor 568-labeled p28 peptide in medium (5% FBS and without phenol red) for 2 hr at 37° C. Cells were fixed with 2% formalin for 10 min. After washing, slides were prepared and mounted with Vectashield with DAPI (Vector Laboratories, Catalog #94010). Slides were examined by an LSM 710 confocal laser scanning microscope (Zeiss). Images were processed using ZEN software (ZEISS ZEN Lite). As for a GSC marker, the slides were first incubated with Alexa Fluor 568-labeled AmiR20-p28 for 2 hr at 37° C. Cells were fixed with 2% formalin for 10 min. After washing, slides were incubated with blocking buffer for 1 hr at room temperature, followed by consecutive staining with anti-CD133 antibody (1:500, R&D Systems FAB11331G). Slides were washed and mounted with Vectashield containing DAPI. Slides were examined by the LSM 710 confocal laser scanning microscope.
SJ-GBM2 spheroids were formed by self-aggregation of cells in the bottoms of non-adherent round bottom 96-well plates (Thermo Scientific, #174925 96U). Suspensions of 10,000 cells in 100 μl volumes of media were pipetted into individual wells and allowed to form cell-cell connections over the course of 3 days.

miR-20a [3] = assay: miR-20a levels in resected tumor tissues of treated mice; format: in vivo; conditions: 1 mg/kg 3 times a week for one week; vs PBS-treated mice
Excerpt: Micro RNA enriched fraction was extracted using the miRNeasy Mini Kit (Qiagen, Catalog #217004) following the manufacturer's instructions. Stem loop real-time qPCR was used to analyze miRNA expression. We designed miR-20a stem loop RT primers and amplification primers according to a previously described method 79. cDNA was synthesized from extracted RNA using unique stem loop RT primers. The sequence of the stem loop primer for miR-20a was 5′-[…]-3′ (SEQ ID NO:7). Reverse transcriptase reactions contained the following reagents: 10 ng of RNA sample, 60 nM stem-loop RT primer, 1×RT buffer, 0.25 mM dNTP, and 4 U/μl reverse transcriptase. Reactions were performed by incubation at 16° C. for 30 min, 42° C. for 30 min and 85° C. for 5 min. Real-time PCR (7300 Real time PCR Systems, Applied Biosystems, CA) was performed using the specific forward primer for miR-20a (5′-[…]-3′ (SEQ ID NO:8)) and a universal reverse primer (5′-GTGCA GGGTC CGAGGT-3′ (SEQ ID NO:9)). […]
A quantitative analysis using human-specific Alu sequence (hAlu) was performed on samples collected from the isolated brain tissues. […] The amount of hAlu and mGAPDH DNA in the tissue was calculated by comparison with a standard curve, and the calculated amount of hAlu DNA was normalized against the relative quantity of mGAPDH. […]

miR-20a [4] = assay: Circulating miR-20a in sera of treated mice; format: in vivo; conditions: early-phase treatment group, 1 mg/kg; vs tumor-free mice (P=0.78)
Excerpt: as §1, with “The results were verified by performing PCR using M13 modified forward and reverse primers specific to stem loop sequence. The PCR products were visualized in 2% agarose gels and DNA-sequence was confirmed. Human tumor and serum samples were obtained from patients who had signed informed consent and the institutional review board approval was obtained in Pediatric Brain Tumor Consortium (PBTC-041) participating sites.” left out

SJ-GBM2 cells = conditions: read-out: IC50 (cell viability); 24 hr
Procedure: as §2, §3

Substance: AmiR20-p28: BBB-permeable tumor-navigating CPP p28 (Cys-p28) covalently linked to 2′ O-methyl antisense miR-20a (5′-maleimide)
- miR-20a expression levels reduced by (miR-20a [1]; CHLA-200 cells): 96%
- miR-20a expression levels reduced by (miR-20a [1]; LN-229 cells): 84%
- miR-20a expression levels reduced by (miR-20a [1]; SJ-GBM2 cells): 94%
- miR-20a levels (miR-20a [1]; normal human astrocytes): not significantly altered
- IC50 (CHLA-200 cells): 11 nM
- effect on the viability [2]: little effect on the viability
- structure of the SJ-GBM2 spheroids (SJ-GBM2 spheroids; 10 nM, 24 and 48 h): started to disintegrate at 24 h
- uptake in tumor spheroids (SJ-GBM2 spheroids; 20 μM Alexa Fluor-labeled, 2 hr, 37° C.): penetrated the tumor spheroids
- miR-20a levels in tumor tissues (miR-20a [3]): significant decrease in miR-20a levels
- serum miR-20a level (miR-20a [4]): not significantly different from the basal level in the tumor-free mice
- IC50 (SJ-GBM2 cells): 8 nM
